This note sets out measurements from patent US20230000840A1, “THERAPEUTIC AGENTS AND PROPHYLACTIC AGENTS FOR FUNCTIONAL GASTROINTESTINAL DISORDERS AND XEROSTOMIA” (NIPPON SHINYAKU CO., LTD., priority 2019, published 2023).

The test system of one test is ileum. Briefly: Magnus test: carbachol-induced contraction of isolated rat ileum. The following applies: test compound 10 μM, then carbachol 50 nM, 100% = carbachol 1000 nM, 0% = DMSO + carbachol 50 nM, average ± standard error, read-out: Enhancement ratio P of the contraction force. As to the method:
9- to 15-week-aged SD female rats (Japan SLC, Inc.) were exsanguinated to death by amputation of carotid artery under isoflurane anesthesia. Then, the ileum was removed from each rat, and cut to a length of 2 cm while excising the mesentery and connective tissue, to prepare an intestinal sample. In a Magnus tank, this sample was immersed and suspended in 20 mL of a Krebs solution at 37° C. (118 mM NaCl, 4.7 mM KCl, 2.5 mM CaCl2, 1.2 mM MgSO4, 1.2 mM KH2PO4, 11 mM D-glucose, 20 mM NaHCO3) aerated with a mixed gas of 95% O2 and 5% CO2. Then, a load of 1 g was applied to the sample to stabilize the tension.
One end of the sample was connected to an isotonic transducer (IT-10, Medical Agent), and tension (contraction force) data was imported to a personal computer via Power Lab (registered trademark) (A&D Instruments Limited). Carbachol (Carbamylcholine Chloride, Cat. No. 036-09841, manufactured by FUJIFILM Wako Pure Chemical Industries, Ltd.) was added to the Krebs solution in the Magnus tank such that the final concentration thereof was 1000 nM, and contraction of the sample was checked. A contraction force Tb of the sample at this time was defined as 100%. Then, the Magnus tank was washed with a Krebs solution three times to wash away carbachol, and the Magnus tank was finally filled with 20 mL of a Krebs solution.
Next, dimethyl sulfoxide (DMSO, Cat. No. 13445-74, manufactured by NACALAI TESQUE, INC.) was added to the Krebs solution in the Magnus tank, then carbachol was added to the Krebs solution in the Magnus tank such that the final concentration thereof was 50 nM, and contraction of the sample was checked. A contraction force Ta of the sample at this time was defined as 0%. Then, the Magnus tank was washed with a Krebs solution three times to wash away carbachol and DMSO, and the Magnus tank was finally filled with 20 mL of a Krebs solution. Next, a test compound dissolved in DMSO was added to the Krebs solution in the Magnus tank such that the final concentration thereof was 10 μM, then carbachol was added to the Krebs solution in the Magnus tank such that the final concentration thereof was 50 nM, and contraction of the sample was checked.
As described above, the contraction force Tb of the sample when carbachol was added at a final concentration of 1000 nM was defined as 100%, and the contraction force Ta of the sample when carbachol was added at a final concentration of 50 nM under the condition that DMSO was added first instead of the test compound was defined as 0%. The contraction force of the sample when carbachol was added at a final concentration of 50 nM under the condition that the test compound was added first at a final concentration of 10 μM was denoted by Tc, and an enhancement ratio P (unit: %) of the contraction force by the test compound was calculated according to the following equation (2). The increase in contraction force by the test compound was evaluated on the basis of the enhancement ratio P. The number of cases in each addition group was 3 to 7.
P=100×(Tc−Ta)/(Tb−Ta) (2)

In another test the test system is anesthetized mice. Briefly: Measurement of secreted saliva amount in anesthetized mice. It is filed as in vivo, mouse. The following applies: urethane-anesthetized male ICR mice; 10 mg/kg intravenous; cotton balls weighed after 30 minutes; average ± standard error. As to the method:
8-week-aged male ICR mice (Japan SLC, Inc.) were anesthetized with urethane (1650 mg/kg, intraperitoneal administration). After about 1 hour, a test compound or a vehicle (physiological saline containing 10% DMSO (OTSUKA NORMAL SALINE, manufactured by Otsuka Pharmaceutical Factory, Inc.)) was intravenously administered at 10 mg/kg, and immediately after that, one or two absorbent cotton wool balls ([…]) (Roller Cotton (cotton ball) SS, manufactured by Nichiei Co., Ltd.) were inserted into the mouth. The difference between the weight of the absorbent cotton balls after 30 minutes from insertion and the weight of the absorbent cotton balls before insertion was defined as an amount of saliva secreted. At this time, the test compound was dissolved in DMSO and then diluted 10-fold with physiological saline. The administration volumes of the test compound and the vehicle were each set to 5 mL/kg. The experiment was carried out in three parts. The number of cases in each administration group was 3-4.

For `COCC1(CN(C)c2cc(-c3cc(C4CC4)nc(C(F)(F)F)c3)nc3nc(-c4cnc(N5CCC(OCC(=O)O)CC5)cn4)[nH]c23)CCCC1` [Example 5, {[1-(5-{5-[2-Cyclopropyl-6-(trifluoromethyl)pyridin-4-yl]-7-[{[1-(methoxymethyl)cyclopentyl]methyl}(methyl)amino]-1H-imidazo[4,5-b]pyridin-2-yl}pyrazin-2-yl)piperidin-4-yl]oxy}acetic acid], in the test on ileum, the activation at 10 µM is 33.5 ± 3.39%. Besides, the “Amount of saliva secreted” value in the test on anesthetized mice is on record as 66.30 ± 15.32 mg.
For `COCC1(CN(C)c2cc(-c3cnc(C4CC4)c(C(F)(F)F)c3)nc3nc(-c4cnc(N5CCN(CCC(=O)O)CC5)cn4)[nH]c23)CCCCC1` [Example 10] the same measures were 19.3 ± 5.52% and 329.83 ± 49.36 mg.
